Results: patent publication US20020137929A1, “1 - (3-heterocyclylphenyl) isothiourea, -isourea, -guanidine and -amidine herbicidal agents” (Intellectual Property Department, BASF Aktiengesellschaft, priority 1998, published 2002)

Columns and labels:
AMBEL (Ragweed, Common) [1] = experiment: Postemergence herbicidal evaluation; type: in vivo, Ambrosia artemisifolia; conditions: postemergence
Outline: (§1)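 ~2-wk seedlings; postemergence spray, 40 psi; vehicle 1:1 acetone:water + 0.5% Tween 20; rate ≈0.0156–0.500 kg/ha; greenhouse hold; scored 4–5 wk after treatment, 0–9 scale vs control; repeat tests averaged.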

CASOB (Sicklepod) [2] = experiment: Postemergence herbicidal evaluation; type: in vivo, Cassia obtusifolia; conditions: postemergence
Outline: as §1

[3] = system: CHEAL (Lambsquarters, Common); experiment: Postemergence herbicidal evaluation; type: in vivo, Chenopodium album; conditions: postemergence
Outline: as §1

[4] = system: IPOHE (Morningglory, Ivyleaf); experiment: Postemergence herbicidal evaluation; type: in vivo, Ipomoea hederacea; conditions: postemergence
Description: In the tests, seedling plants are grown in jiffy flats for about two weeks. The test compounds are dispersed in 50/50 acetone/water mixtures containing 0.5% TWEEN®20, a polyoxyethylene sorbitan monolaurate surfactant of Atlas Chemical Industries, in sufficient quantities to provide the equivalent of about 0.0156 kg to 0.500 kg per hectare of active compound when applied to the plants through a spray nozzle operating at 40 psi for a predetermined time. After spraying, the plants are placed on greenhouse benches and are cared for in accordance with conventional greenhouse procedures. From four to five weeks after treatment, the seedling plants are examined and rated according to the rating system set forth below. Where more than one test is involved for a given compound, the data are averaged.
Plant species employed in these evaluations are reported by header abbreviation, common name and scientific name.
(§2) Results of herbicide evaluation are expressed on a rating scale (0-9). The scale is based upon a visual observation of plant stand, vigor, malformation, size, chlorosis and overall plant appearance as compared with a control.

ECHCG (Barnyardgrass) = experiment: Postemergence herbicidal evaluation; type: in vivo, Echinochloa crus-galli; conditions: postemergence
Outline: as §1

[5] = system: GLXMAW (Soybean, Williams); experiment: Postemergence herbicidal evaluation; type: in vivo, Glycine max, (L.) Merr. cv Williams; conditions: postemergence
Outline: as §1

[6] = system: TRZAWR (Wheat, Winter, cv Riband); experiment: Postemergence herbicidal evaluation; type: in vivo, Triticum aestivum; conditions: postemergence
Outline: as §1

ABUTH (Velvetleaf) = experiment: Preemergence herbicidal evaluation; type: in vivo, Abutilon theophrasti; conditions: rated 4-5 weeks after treatment
Outline: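 Sown cups got a single aqueous acetone spray of test compound (roughly 0.0156–0.500 kg/ha) before seedlings emerged. Evaluation, 4–5 weeks on, used a 0–9 visual scale covering plant stand, vigor, size, malformation, chlorosis and general appearance compared with controls.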

AMBEL (Ragweed, Common) [7] = experiment: Preemergence herbicidal evaluation; type: in vivo, Ambrosia artemisifolia; conditions: rated 4-5 weeks after treatment
Excerpt: as §2
(§3) The preemergence herbicidal activity of the test compounds of the present invention is exemplified by the following tests in which the seeds of a variety of monocotyledonous and dicotyledonous plants are separately mixed with potting soil and planted on top of approximately one inch of soil in separate pint cups. After planting, the cups are sprayed with the selected aqueous acetone solution containing test compound in sufficient quantity to provide the equivalent of about 0.0156 to 0.500 kg per hectare of test compound per cup. The treated cups are then placed on greenhouse benches, watered and cared for in accordance with conventional greenhouse procedures. From four to five weeks after treatment, the tests are terminated and each cup is examined and rated according to the rating system provided in Example 37.
(§4) The compounds evaluated are reported by compound number given in Example 37.

CASOB (Sicklepod) [8] = experiment: Preemergence herbicidal evaluation; type: in vivo, Cassia obtusifolia; conditions: rated 4-5 weeks after treatment
Excerpt: as §2, §3, §4

[9] = system: CHEAL (Lambsquarters, Common); experiment: Preemergence herbicidal evaluation; type: in vivo, Chenopodium album; conditions: rated 4-5 weeks after treatment
Excerpt: as §2, §3, §4

[10] = system: IPOHE (Morningglory, Ivyleaf); experiment: Preemergence herbicidal evaluation; type: in vivo, Ipomoea hederacea; conditions: rated 4-5 weeks after treatment
Excerpt: as §2, §3, §4

[11] = system: GLXMAW (Soybean, Williams); experiment: Preemergence herbicidal evaluation; type: in vivo, Glycine max, (L.) Merr. cv Williams; conditions: rated 4-5 weeks after treatment
Excerpt: as §2, §3, §4

ORYSAT (Rice, Tebonnet) = experiment: Preemergence herbicidal evaluation; type: in vivo, Oryza sativa, (L.) Tebonnet; conditions: rated 4-5 weeks after treatment
Excerpt: as §2, §3, §4

[12] = system: SAGPY (Arrowhead (Pygmaea)); experiment: Preemergence weed control under flooded paddy conditions; type: in vivo, Sagittaria pygmaea; conditions: rated 3-4 weeks after treatment
Outline: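 Silt loam, seeds in top 0.5 cm; flood held 1.5-3 cm; test cpd as acetone/water 50/50 into flood water, ~0.0313-0.500 kg/ha a.i.; greenhouse 3-4 wk; visual 0-9 score vs control.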

With `COC(=O)C(Cc1ccc(Cl)cc1)N1C(=O)CSC1=Nc1cc(-n2c(=O)cc(C(F)(F)F)n(C)c2=O)c(F)cc1Cl` (racemic) [Compound 77, Methyl α-(p-chlorobenzyl)-2-{{2-chloro-5-[3,6-dihydro-3-methyl-2,6-dioxo-4-(trifluoromethyl)-1(2H)-pyrimidinyl]-4-fluorophenyl}imino}-4-oxo-3-thiazolidineacetate, DL-] the AMBEL herbicidal rating (AMBEL (Ragweed, Common) [1]; rate 0.0158 kg/ha) was 9.0, the AMBEL herbicidal rating (AMBEL (Ragweed, Common) [1]; rate 0.0315 kg/ha) was 9.0 and the AMBEL herbicidal rating (AMBEL (Ragweed, Common) [1]; rate 0.0630 kg/ha) was 9.0. It also gave a CASOB herbicidal rating (CASOB (Sicklepod) [2]; rate 0.0158 kg/ha) of 1.0, a CASOB herbicidal rating (CASOB (Sicklepod) [2]; rate 0.0315 kg/ha) of 1.0 and a CASOB herbicidal rating (CASOB (Sicklepod) [2]; rate 0.0630 kg/ha) of 1.0. For the same compound, the CHEAL herbicidal rating ([3]; rate 0.0158 kg/ha) was 6.0, the CHEAL herbicidal rating ([3]; rate 0.0315 kg/ha) was 9.0 and the CHEAL herbicidal rating ([3]; rate 0.0630 kg/ha) was 9.0. For the same compound, the IPOHE herbicidal rating ([4]; rate 0.0158 kg/ha) was 9.0, the IPOHE herbicidal rating ([4]; rate 0.0315 kg/ha) was 9.0 and the IPOHE herbicidal rating ([4]; rate 0.0630 kg/ha) was 9.0. For the same compound, the ECHCG herbicidal rating (ECHCG (Barnyardgrass); rate 0.0158 kg/ha) was 1.0, the ECHCG herbicidal rating (ECHCG (Barnyardgrass); rate 0.0315 kg/ha) was 1.0 and the ECHCG herbicidal rating (ECHCG (Barnyardgrass); rate 0.0630 kg/ha) was 1.0. The GLXMAW herbicidal rating ([5]; rate 0.0158 kg/ha) was 3.5, the GLXMAW herbicidal rating ([5]; rate 0.0315 kg/ha) was 5.0 and the GLXMAW herbicidal rating ([5]; rate 0.0630 kg/ha) was 5.0. The TRZAWR herbicidal rating ([6]; rate 0.0158 kg/ha) was 3.0, the TRZAWR herbicidal rating ([6]; rate 0.0315 kg/ha) was 2.5 and the TRZAWR herbicidal rating ([6]; rate 0.0630 kg/ha) was 3.0. For the same compound, the “Preemergence herbicidal rating ABUTH” value (ABUTH (Velvetleaf); rate 0.0156 kg/ha) was 1.0, the “Preemergence herbicidal rating ABUTH” value (ABUTH (Velvetleaf); rate 0.0313 kg/ha) was 0.0 and the “Preemergence herbicidal rating ABUTH” value (ABUTH (Velvetleaf); rate 0.0625 kg/ha) was 9.0. The “Preemergence herbicidal rating ABUTH” value (ABUTH (Velvetleaf); rate 0.1250 kg/ha) was 9.0, the “Preemergence herbicidal rating ABUTH” value (ABUTH (Velvetleaf); rate 0.2500 kg/ha) was 9.0 and the “Preemergence herbicidal rating AMBEL” value (AMBEL (Ragweed, Common) [7]; rate 0.0156 kg/ha) was 0.0. The “Preemergence herbicidal rating AMBEL” value (AMBEL (Ragweed, Common) [7]; rate 0.0313 kg/ha) was 2.0, the “Preemergence herbicidal rating AMBEL” value (AMBEL (Ragweed, Common) [7]; rate 0.0625 kg/ha) was 1.0 and the “Preemergence herbicidal rating AMBEL” value (AMBEL (Ragweed, Common) [7]; rate 0.1250 kg/ha) was 2.0. The “Preemergence herbicidal rating AMBEL” value (AMBEL (Ragweed, Common) [7]; rate 0.2500 kg/ha) was 7.0, the “Preemergence herbicidal rating CASOB” value (CASOB (Sicklepod) [8]; rate 0.0156 kg/ha) was 0.0 and the “Preemergence herbicidal rating CASOB” value (CASOB (Sicklepod) [8]; rate 0.0313 kg/ha) was 0.0. For the same compound, the “Preemergence herbicidal rating CASOB” value (CASOB (Sicklepod) [8]; rate 0.0625 kg/ha) was 0.0, the “Preemergence herbicidal rating CASOB” value (CASOB (Sicklepod) [8]; rate 0.1250 kg/ha) was 0.0 and the “Preemergence herbicidal rating CASOB” value (CASOB (Sicklepod) [8]; rate 0.2500 kg/ha) was 0.0. The “Preemergence herbicidal rating CHEAL” value ([9]; rate 0.0156 kg/ha) was 2.0, the “Preemergence herbicidal rating CHEAL” value ([9]; rate 0.0313 kg/ha) was 9.0 and the “Preemergence herbicidal rating CHEAL” value ([9]; rate 0.0625 kg/ha) was 9.0. The “Preemergence herbicidal rating CHEAL” value ([9]; rate 0.1250 kg/ha) was 9.0, the “Preemergence herbicidal rating CHEAL” value ([9]; rate 0.2500 kg/ha) was 9.0 and the “Preemergence herbicidal rating IPOHE” value ([10]; rate 0.0156 kg/ha) was 1.0. The “Preemergence herbicidal rating IPOHE” value ([10]; rate 0.0313 kg/ha) was 0.0, the “Preemergence herbicidal rating IPOHE” value ([10]; rate 0.0625 kg/ha) was 0.0 and the “Preemergence herbicidal rating IPOHE” value ([10]; rate 0.1250 kg/ha) was 0.0. The “Preemergence herbicidal rating IPOHE” value ([10]; rate 0.2500 kg/ha) was 2.0, the “Preemergence herbicidal rating GLXMAW” value ([11]; rate 0.0156 kg/ha) was 0.0 and the “Preemergence herbicidal rating GLXMAW” value ([11]; rate 0.0313 kg/ha) was 0.0. For the same compound, the “Preemergence herbicidal rating GLXMAW” value ([11]; rate 0.0625 kg/ha) was 0.0, the “Preemergence herbicidal rating GLXMAW” value ([11]; rate 0.1250 kg/ha) was 0.0 and the “Preemergence herbicidal rating GLXMAW” value ([11]; rate 0.2500 kg/ha) was 1.0. The “Preemergence herbicidal rating ORYSAT” value (ORYSAT (Rice, Tebonnet); rate 0.0156 kg/ha) was 0.0, the “Preemergence herbicidal rating ORYSAT” value (ORYSAT (Rice, Tebonnet); rate 0.0313 kg/ha) was 0.0 and the “Preemergence herbicidal rating ORYSAT” value (ORYSAT (Rice, Tebonnet); rate 0.0625 kg/ha) was 0.0. For the same compound, the “Preemergence herbicidal rating ORYSAT” value (ORYSAT (Rice, Tebonnet); rate 0.1250 kg/ha) was 0.0, the “Preemergence herbicidal rating ORYSAT” value (ORYSAT (Rice, Tebonnet); rate 0.2500 kg/ha) was 0.0 and the “SAGPY herbicidal effect rating” value ([12]; 0.0313 kg/ha) was 0.0. For the same compound, the “SAGPY herbicidal effect rating” value ([12]; 0.0625 kg/ha) was 0.0, the “SAGPY herbicidal effect rating” value ([12]; 0.1250 kg/ha) was 0.0 and the “SAGPY herbicidal effect rating” value ([12]; 0.2500 kg/ha) was 0.0.
